# Where two headings read alike, the source gives them in different places.
# Key:
# GSK3α = GSK3α (Homo sapiens, UniProt P49840); assay: biochemical
# Procedure, shortened: (§1)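 Reactions run 20 hours at room temperature, stopped with EDTA. Phosphorylated and unphosphorylated fluoresceinated peptide separated electrophoretically on Caliper LabChip3000. Eleven compound concentrations tested; IC50 by non-linear regression.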
# GSK3β = GSK3β (Homo sapiens, UniProt P49841); assay: GSK3β kinase assay (Caliper LabChip3000, fluoresceinated peptide substrate); assay type: biochemical
# Procedure, shortened: as §1
# pTau = pTau assay (method not described); assay type: cell-based
# [1] = second value of the cell, 250 pM enzyme, 20 uM ATP, 20 hours at room temperature, read-out: GSK3β/α (nM): GSK3α IC50
# [2] = first value of the cell, 250 pM enzyme, 20 uM ATP, 20 hours at room temperature, read-out: GSK3β/α (nM): GSK3β IC50
# Sequence of GSK3β (P49841 whole entry, species assumed): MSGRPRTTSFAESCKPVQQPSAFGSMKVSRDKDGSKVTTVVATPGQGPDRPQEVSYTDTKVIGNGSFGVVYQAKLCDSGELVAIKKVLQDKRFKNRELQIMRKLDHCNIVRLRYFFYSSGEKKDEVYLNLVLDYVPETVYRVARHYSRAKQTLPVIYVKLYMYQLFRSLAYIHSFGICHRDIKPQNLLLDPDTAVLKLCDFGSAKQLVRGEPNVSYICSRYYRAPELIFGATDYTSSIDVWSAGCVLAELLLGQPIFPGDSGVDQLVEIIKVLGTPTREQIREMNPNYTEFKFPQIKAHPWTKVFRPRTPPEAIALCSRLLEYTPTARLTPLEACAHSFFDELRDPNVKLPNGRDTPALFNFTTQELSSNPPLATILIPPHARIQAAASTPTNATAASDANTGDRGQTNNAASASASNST
# Sequence of GSK3α (P49840 whole entry, species assumed): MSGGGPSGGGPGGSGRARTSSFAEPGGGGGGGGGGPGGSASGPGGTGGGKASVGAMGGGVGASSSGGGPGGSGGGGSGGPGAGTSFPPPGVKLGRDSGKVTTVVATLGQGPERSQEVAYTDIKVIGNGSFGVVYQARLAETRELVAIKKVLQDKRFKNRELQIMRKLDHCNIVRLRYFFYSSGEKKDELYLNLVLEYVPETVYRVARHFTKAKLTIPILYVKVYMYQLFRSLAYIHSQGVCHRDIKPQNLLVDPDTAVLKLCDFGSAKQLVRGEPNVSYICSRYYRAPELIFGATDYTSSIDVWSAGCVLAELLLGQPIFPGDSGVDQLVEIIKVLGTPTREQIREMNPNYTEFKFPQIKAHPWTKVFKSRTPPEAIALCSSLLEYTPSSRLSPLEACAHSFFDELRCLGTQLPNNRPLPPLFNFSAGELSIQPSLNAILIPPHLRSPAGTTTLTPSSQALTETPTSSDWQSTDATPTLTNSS
SMILES,IC50 (GSK3α; [1]) [nM],IC50 (GSK3β; [2]) [nM],IC50 (pTau; read-out: pTau) [nM],IC50 (GSK3β) [nM],IC50 (GSK3α) [nM],IC50 (pTau; read-out: pTau (nM)) [nM]
"O=C(Nc1cnccc1N1C2CCC1CC2)c1ccnc(NC(=O)C2CC2)c1 [Example 60, N-(4-(1s,4s)-7-azabicyclo[2.2.1]heptan-7-yl)pyridin-3-yl)-2-(cyclopropanecarboxamido)isonicotinamide]",5.7,16,620,–,–,–
"COc1ccnc(-c2ccccc2)c1NC(=O)c1ccnc(NC(=O)C2CC2)c1 [Example 62, 2-(Cyclopropanecarboxamido)-N-(4-methoxy-2-phenylpyridin-3-yl)isonicotinamide]",4.8,2.6,310,–,–,–
"O=C(Nc1c(-c2ccccc2)ncc2ccccc12)c1ccnc(NC(=O)C2CC2)c1 [Example 63, 2-(Cyclopropanecarboxamido)-N-(3-phenylisoquinolin-4-yl)isonicotinamide]",56,12,4100,–,–,–
"O=C(Nc1cnccc1-c1cncnc1)c1ccnc(NC(=O)C2CC2)c1 [Example 64, 2-(Cyclopropanecarboxamido)-N-(4-(pyrimidin-5-yl)pyridin-3-yl)isonicotinamide]",76,97,≥ 10000,–,–,–
"O=C(Nc1cnccc1-c1ccc(C(F)(F)F)cc1Cl)c1ccnc(NC(=O)C2CC2)c1 [Example 70, N-(4-(2-chloro-4-(trifluoromethyl)phenyl)pyridin-3-yl)-2-(cyclopropanecarboxamido)isonicotinamide]",4.5,7,280,–,–,–
"CCCc1ccc(-c2ccncc2NC(=O)c2ccnc(NC(=O)C3CC3)c2)cc1 [Example 72, 2-(Cyclopropanecarboxamido)-N-(4-(4-propylphenyl)pyridin-3-yl)isonicotinamide]",6.4,3.1,250,–,–,–
"CC(C)c1ccc(-c2ccncc2NC(=O)c2ccnc(NC(=O)C3CC3)c2)cc1 [Example 75, 2-(Cyclopropanecarboxamido)-N-(4-(4-isopropylphenyl)pyridine-3-yl)isonicotinamide]",7.4,30,460,–,–,–
"C[C@@H]1CN(c2ccncc2NC(=O)c2ccnc(NC(=O)C3CC3)c2)C[C@H](C)O1 [Example 79, 2-(Cyclopropanecarboxamido)-N-(4-((2S,6R)-2,6-dimethylmorpholino)pyridin-3-yl)isonicotinamide]",5.5,–,190,14,–,–
"O=C(Nc1cnccc1N1CCCC(F)(F)C1)c1ccnc(NC(=O)C2CC2)c1 [Example 80, 2-(Cyclopropanecarboxamido)-N-(4-(3,3-difluoropiperidin-1-yl)pyridin-3-yl)isonicotinamide]",0.46,1.5,34,–,–,–
"COc1ccc(-c2ccncc2NC(=O)c2ccnc(NC(=O)C3CC3)c2)c(F)c1 [Example 81, 2-(Cyclopropanecarboxamido)-N-(4-(2-fluoro-4-methoxyphenyl)pyridin-3-yl)isonicotinamide]",0.58,1.3,31,–,–,–
"O=C(Nc1cnccc1-c1ccc(C(F)(F)F)cc1F)c1ccnc(NC(=O)C2CC2)c1 [Example 82, 2-(Cyclopropanecarboxamido)-N-(4-(2-fluoro-4-(trifluoromethyl)phenyl)pyridine-3-yl)isonicotinamide]",4,9.6,200,–,–,–
"O=C(Nc1cnccc1N1CCC(F)(F)C1)c1ccnc(NC(=O)C2CC2)c1 [Example 83, 2-(Cyclopropanecarboxamido)-N-(4-(3,3-difluoropyrrolidin-1-yl)pyridin-3-yl)isonicotinamide]",49,71,4400,–,–,–
"N#Cc1ccc(-c2ccncc2NC(=O)c2ccnc(NC(=O)C3CC3)c2)c(F)c1 [Example 85, N-(4-(4-cyano-2-fluorophenyl)pyridin-3-yl)-2-(cyclopropanecarboxamido)isonicotinamide]",0.94,2.9,33,–,–,–
"O=C(Nc1cnccc1-c1cc(Cl)ccc1F)c1ccnc(NC(=O)C2CC2)c1 [Example 86, 2-(Cyclopropanecarboxamido)-N-(4-(2-fluoro-5-chloro-phenyl)pyridin-3-yl)isonicotinamide]",26,54,630,–,–,–
"CC1(C)CN(c2ccncc2NC(=O)c2ccnc(NC(=O)C3CC3)c2)CCO1 [Example 87, 2-(Cyclopropanecarboxamido)-N-(4-(2,2-dimethylmorpholino)pyridin-3-yl)isonicotinamide]",0.39,–,25,0.79,–,–
"O=C(Nc1c(N2CCOCC2)ccnc1F)c1ccnc(NC(=O)C2CC2)c1 [Example 88, 2-(Cyclopropanecarboxamido)-N-(2-fluoro-4-morpholinopyridin-3-yl)isonicotinamide]",3.9,9.1,170,–,–,–
"CC1(C)COCCN1c1ccncc1NC(=O)c1ccnc(NC(=O)C2CC2)c1 [Example 90, 2-(Cyclopropanecarboxamido)-N-(4-(3,3-dimethylmorpholino)pyridin-3-yl)isonicotinamide]",0.1,–,0.4,0.15,–,–

SMILES,IC50 (GSK3α; [1]) [nM],IC50 (GSK3β; [2]) [nM],IC50 (pTau; read-out: pTau) [nM],IC50 (GSK3β) [nM],IC50 (GSK3α) [nM],IC50 (pTau; read-out: pTau (nM)) [nM]
"CN(C)C(=O)c1ccc(-c2ccncc2NC(=O)c2ccnc(NC(=O)C3CC3)c2)c(F)c1 [Example 92, 2-(Cyclopropanecarboxamido)-N-(4-(4-(dimethylcarbamoyl)-2-fluorophenyl)pyridin-3-yl)isonicotinamide]",11,24,460,–,–,–
"O=C(Nc1cnccc1-c1ccc(OC(F)(F)F)cc1F)c1ccnc(NC(=O)C2CC2)c1 [Example 94, 2-(Cyclopropanecarboxamido)-N-(4-(2-fluoro-4-(trifluoromethoxy)phenyl)pyridin-3-yl)isonicotinamide]",5,13,120,–,–,–
"O=C(Nc1cnccc1-c1cc2ccccc2o1)c1ccnc(NC(=O)C2CC2)c1 [Example 95, N-(4-(benzofuran-2-yl)pyridin-3-yl)-2-(cyclopropanecarboxamido)isonicotinamide]",1.4,1.9,100,–,–,–
"Cn1c(-c2ccncc2NC(=O)c2ccnc(NC(=O)C3CC3)c2)cc2ccccc21 [Example 96, 2-(Cyclopropanecarboxamido)-N-(4-(1-methyl-1H-indol-2-yl)pyridin-3-yl)isonicotinamide]",1.7,4.1,66,–,–,–
"CC1(C)CC1C(=O)Nc1cc(C(=O)Nc2cnccc2-c2ccccc2)ccn1 (stereo not drawn) [Example 97, 2-(2,2-Dimethylcyclopropanecarboxamido)-N-(4-phenylpyridin-3-yl)isonicotinamide]",8.5,1.1,870,–,–,–
"O=C(Nc1cnccc1-c1ccccc1)c1ccnc(NC(=O)C2CC2(F)F)c1 (stereo not drawn) [Example 98, 2-(2,2-Difluorocyclopropanecarboxamido)-N-(4-phenylpyridin-3-yl)isonicotinamide]",17,11,1400,–,–,–
"CC1CC1C(=O)Nc1cc(C(=O)Nc2cnccc2-c2ccccc2)ccn1 (stereo not drawn) [Example 100, 2-(2-Methylcyclopropanecarboxamido)-N-(4-phenylpyridin-3-yl)isonicotinamide]",7.5,26,350,–,–,–
"COC(=O)c1cncc(NC(=O)c2ccnc(NC(=O)C3CC3)c2)c1 [Example 101, Methyl 5-(2-(cyclopropanecarboxamido)isonicotinamido)nicotinate]",13,30,3100,–,–,–
"Cc1cncc(NC(=O)c2ccnc(NC(=O)C3CC3)c2)c1 [Example 102, 2-(cyclopropanecarboxamido)-N-(5-methylpyridin-3-yl)isonicotinamide]",5.4,–,740,9.5,–,–
"O=C(O)c1cncc(NC(=O)c2ccnc(NC(=O)C3CC3)c2)c1 [Example 103, 5-(2-(cyclopropanecarboxamido)isonicotinamido)nicotinic Acid]",121,197,≥ 10000,–,–,–
"O=C(Nc1cncc(-c2ccccc2)c1)c1ccnc(NC(=O)C2CC2)c1 [Example 104, 2-(cyclopropanecarboxamido)-N-(5-phenylpyridin-3-yl)isonicotinamide]",–,–,–,5,2,270
"NC(=O)c1cncc(NC(=O)c2ccnc(NC(=O)C3CC3)c2)c1 [Example 105, 5-(2-(cyclopropanecarboxamido)isonicotinamido)nicotinamide]",3.6,6.5,6900,–,–,–
"O=C(Nc1cncc(-c2ccncc2)c1)c1ccnc(NC(=O)C2CC2)c1 [Example 106, N-([3,4′-bipyridin]-5-yl)-2-(cyclopropanecarboxamido)isonicotinamide]",2.5,–,320,4.8,–,–
"O=C(Nc1cncc(Oc2ccccc2)c1)c1ccnc(NC(=O)C2CC2)c1 [Example 107, 2-(cyclopropanecarboxamido)-N-(5-phenoxypyridin-3-yl)isonicotinamide]",9.1,–,3300,19,–,–
"O=C(Nc1cncc(N2CCCCC2)c1)c1ccnc(NC(=O)C2CC2)c1 [Example 108, 2-(cyclopropanecarboxamido)-N-(5-(piperidin-1-yl)pyridin-3-yl)isonicotinamide]",23,–,5400,130,–,–
"O=C(Nc1cncc(N2CCOCC2)c1)c1ccnc(NC(=O)C2CC2)c1 [Example 109, 2-(cyclopropanecarboxamido)-N-(5-morpholinopyridin-3-yl)isonicotinamide]",17,–,2000,73,–,–
